Experimental data reported in patent publication US20100273701A1, “USE OF SALUSIN BETA ALONE OR IN COMBINATION WITH OCTREOTIDE AS A THERAPEUTIC AGENT” (priority 2007, published 2010).

System: drug-resistant Mycobacterium tuberculosis
Conditions: 10 micrograms per ml; seven days; strain resistant to PAS, streptomycin and isoniazid

Compound	inhibition of the growth of Mycobacterium tuberculosis
C[C@@H](O)[C@@H]1NC(=O)[C@H](CCCCN)NC(=O)[C@@H](Cc2c[nH]c3ccccc23)NC(=O)[C@H](Cc2ccccc2)NC(=O)[C@@H](NC(=O)[C@H](N)Cc2ccccc2)CSSC[C@@H](C(=O)N[C@H](CO)[C@@H](C)O)NC1=O [Peptide 2, D-Phe-Cys-Phe-D-Trp-Lys-Thr-Cys-L-threoninol]	100%
Ala-lle-Phe-Ile-Phe-Ile-Arg-Trp-Leu-Leu-Lys-Leu-Gly-His-His-Gly-Arg-Ala-Pro-Pro-OH [Peptide 1]	100%
